This note sets out measurements from patent US4311837A, “Certain heterocyclic thiomethyl derivatives of 7-(dihalogenated phenylthioacetamido)cephalosporanic acids useful in the treatment of infections caused by _Streptococcus faecalis” (Eli Lilly and Company, priority 1980, dated 1982).

The assay deals with Streptococcus faecalis. Briefly: In vitro antibacterial activity against eleven strains of Streptococcus faecalis (agar dilution method; tube dilution per footnote). The format is cell-based. To be noted: Enterococcus faecalis, geometric mean against eleven strains of Streptococcus faecalis. The text has this: […] faecalis is classified as a species of Group D β-hemolytic streptococci, also known as enterococci. Infections caused by Group D β-hemolytic streptococci, in particular […] faecalis, are generally known to be resistant to cephalosporin antibiotics. The infections caused by Group D streptococci commonly involve the endocardium (endocarditis), the urinary tract, the intestines, the biliary tract, postoperative wounds, and interabdominal abscesses. Endocarditis is clinically a very important disease and is frequently difficult to treat by antibiotic therapy. The disease is commonly treated by infusion of penicillin G in combination with streptomycin or vancomycin. […] The results are shown in Table 1 where the activity is measured by the MIC values, defined as the concentration of the compound capable of inhibiting the growth of the test organism. |In Vitro Antibacterial Activity Against Eleven |Strains of Streptococcus faecalis | *Geometric mean MIC as determined by the tube dilution method against | eleven strains of Streptococcus faecalis.
One may read the MIC as the lowest concentration found to suppress growth. As to `Cc1nnc(SCC2=C(C(=O)O)N3C(=O)C(NC(=O)CSc4cc(Cl)ccc4Cl)C3SC2)s1` (stereo not drawn), the MIC is 1.29 µg/mL. Then `O=C(CSc1cc(Cl)ccc1Cl)NC1C(=O)N2C(C(=O)O)=C(CSc3cnsn3)CSC12` (stereo not drawn), with 1.37 µg/mL; and `Cc1nsc(SCC2=C(C(=O)O)N3C(=O)C(NC(=O)CSc4cc(Cl)ccc4Cl)C3SC2)n1` (stereo not drawn), with 1.88 µg/mL; and `O=C(CSc1cc(Cl)ccc1Cl)NC1C(=O)N2C(C(=O)O)=C(CSc3ncco3)CSC12` (stereo not drawn), with 1.88 µg/mL. Then `CC(=O)OCC1=C(C(=O)O)N2C(=O)C(NC(=O)CSc3cc(Cl)ccc3Cl)C2SC1` (stereo not drawn), with 2 µg/mL; and `Cc1nnc(SCC2=C(C(=O)O)N3C(=O)C(NC(=O)CSc4cc(Cl)ccc4Cl)C3SC2)o1` (stereo not drawn), with 2.13 µg/mL; and `Cn1nnnc1SCC1=C(C(=O)O)N2C(=O)C(NC(=O)CSc3cc(Cl)ccc3Cl)C2SC1` (stereo not drawn), with 3.11 µg/mL. With `Cn1c(SCC2=C(C(=O)O)N3C(=O)C(NC(=O)CSc4cc(Cl)ccc4Cl)C3SC2)nnc(O)c1=O` (stereo not drawn) the figure was 3.76 µg/mL; with `Nc1nnc(SCC2=C(C(=O)O)N3C(=O)C(NC(=O)CSc4cc(Cl)ccc4Cl)C3SC2)s1` (stereo not drawn), 4.26 µg/mL. In the case of `Cc1nnc(SCC2=C(C(=O)O)N3C(=O)C(NC(=O)CSc4ccc(Cl)c(Cl)c4)C3SC2)s1` (stereo not drawn), the MIC came out at 1.76 µg/mL. With `Cn1nnnc1SCC1=C(C(=O)O)N2C(=O)C(NC(=O)CSc3ccc(Cl)c(Cl)c3)C2SC1` (stereo not drawn) the figure was 4.83 µg/mL; with `O=C(CSc1cc(Cl)ccc1Cl)NC1C(=O)N2C(C(=O)O)=C(CO)CS[C@H]12` (stereo partly drawn) [OH, 7-[2-[(2,5-Dichlorophenyl)thio]acetamido]-3-hydroxymethyl-3-cephem-4-carboxylic acid], 3.11 µg/mL.
